Our source for the IC50 values is patent publication US20250236608A1, “EGFR INHIBITORS” (Blueprint Medicines Corporation, priority 2022, published 2025).

One assay has as its target EGFR (d746-750) (Homo sapiens (Human), UniProt P00533, DEL746-750). Nature of the assay: Biochemical EGFR inhibition assay, EGFR (d746-750). Conditions: Caliper mobility shift; 1.0 mM ATP or ATP Km; read-out: Enz EGFR_Exon19-del746-750 IC50.
Assay [1] has as its target pEGFR (Tyr1068) in PC-9 cells (Ex19Del) (Homo sapiens (Human), UniProt P00533, DEL746-750). Nature of the assay: PC-9 pEGFR AlphaLISA assay. In kind it is cell-based. Conditions: 4 hours incubation, p-EGFR (Tyr1068) AlphaLISA, read-out: Ext pEGFR_PC-9 Ex19Del IC50. The gist of the method:
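Cells seeded in phenol-free DMEM with 10% FBS adhered overnight at 37° C./5% CO2, then were exposed for 4 hours to a 4-fold, 10-point compound dilution series. After lysis, phospho-EGFR was read by AlphaLISA SureFire Ultra, and IC50 was fitted from percent inhibition versus log concentration.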
Background: Alpha assays give light when donor and acceptor beads are brought close together.

The target of the next assay is EGFR L858R (Homo sapiens (Human), UniProt P00533, L858R). Nature of the assay: Biochemical EGFR inhibition assay, EGFR L858R. Conditions: Caliper mobility shift; 1.0 mM ATP or ATP Km; read-out: Enz EGFR_L858R IC50.
Chain of EGFR L858R (P00533 25-1210 L858R): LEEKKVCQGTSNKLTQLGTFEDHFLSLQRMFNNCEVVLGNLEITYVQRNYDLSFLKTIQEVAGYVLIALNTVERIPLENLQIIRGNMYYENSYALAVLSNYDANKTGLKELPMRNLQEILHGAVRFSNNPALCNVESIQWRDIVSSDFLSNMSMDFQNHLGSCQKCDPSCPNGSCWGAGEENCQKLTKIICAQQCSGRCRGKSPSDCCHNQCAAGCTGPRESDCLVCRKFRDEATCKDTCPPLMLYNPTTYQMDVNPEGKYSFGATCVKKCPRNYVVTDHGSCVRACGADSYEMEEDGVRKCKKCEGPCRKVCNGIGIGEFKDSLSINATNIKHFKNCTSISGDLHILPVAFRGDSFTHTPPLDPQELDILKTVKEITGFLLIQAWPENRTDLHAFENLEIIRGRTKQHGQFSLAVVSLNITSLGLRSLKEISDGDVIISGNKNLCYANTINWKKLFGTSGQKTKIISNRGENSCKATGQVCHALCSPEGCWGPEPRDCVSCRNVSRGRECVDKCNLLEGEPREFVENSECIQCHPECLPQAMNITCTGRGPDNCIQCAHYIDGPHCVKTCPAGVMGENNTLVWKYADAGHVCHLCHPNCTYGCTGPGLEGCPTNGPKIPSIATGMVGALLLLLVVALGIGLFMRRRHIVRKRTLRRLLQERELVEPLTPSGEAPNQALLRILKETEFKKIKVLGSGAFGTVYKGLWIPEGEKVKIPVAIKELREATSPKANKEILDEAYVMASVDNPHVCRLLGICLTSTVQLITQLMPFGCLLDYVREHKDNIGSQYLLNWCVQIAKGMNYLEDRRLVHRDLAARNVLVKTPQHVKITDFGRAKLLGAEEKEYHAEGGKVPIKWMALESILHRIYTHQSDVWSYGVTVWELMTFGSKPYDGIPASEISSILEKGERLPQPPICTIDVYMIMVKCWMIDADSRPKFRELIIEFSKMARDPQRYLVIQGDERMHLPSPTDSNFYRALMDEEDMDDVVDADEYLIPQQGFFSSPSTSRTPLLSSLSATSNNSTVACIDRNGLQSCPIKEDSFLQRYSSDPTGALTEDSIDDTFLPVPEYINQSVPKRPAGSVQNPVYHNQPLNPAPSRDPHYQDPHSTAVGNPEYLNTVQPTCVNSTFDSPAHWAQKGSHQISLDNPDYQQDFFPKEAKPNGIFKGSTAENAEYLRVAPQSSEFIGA

As a reminder, the IC50 is the concentration at which inhibition is half-maximal.

Chain of pEGFR (Tyr1068) in PC-9 cells (Ex19Del) (P00533 other isoform, or with tags, fused parts or gaps del 746-750): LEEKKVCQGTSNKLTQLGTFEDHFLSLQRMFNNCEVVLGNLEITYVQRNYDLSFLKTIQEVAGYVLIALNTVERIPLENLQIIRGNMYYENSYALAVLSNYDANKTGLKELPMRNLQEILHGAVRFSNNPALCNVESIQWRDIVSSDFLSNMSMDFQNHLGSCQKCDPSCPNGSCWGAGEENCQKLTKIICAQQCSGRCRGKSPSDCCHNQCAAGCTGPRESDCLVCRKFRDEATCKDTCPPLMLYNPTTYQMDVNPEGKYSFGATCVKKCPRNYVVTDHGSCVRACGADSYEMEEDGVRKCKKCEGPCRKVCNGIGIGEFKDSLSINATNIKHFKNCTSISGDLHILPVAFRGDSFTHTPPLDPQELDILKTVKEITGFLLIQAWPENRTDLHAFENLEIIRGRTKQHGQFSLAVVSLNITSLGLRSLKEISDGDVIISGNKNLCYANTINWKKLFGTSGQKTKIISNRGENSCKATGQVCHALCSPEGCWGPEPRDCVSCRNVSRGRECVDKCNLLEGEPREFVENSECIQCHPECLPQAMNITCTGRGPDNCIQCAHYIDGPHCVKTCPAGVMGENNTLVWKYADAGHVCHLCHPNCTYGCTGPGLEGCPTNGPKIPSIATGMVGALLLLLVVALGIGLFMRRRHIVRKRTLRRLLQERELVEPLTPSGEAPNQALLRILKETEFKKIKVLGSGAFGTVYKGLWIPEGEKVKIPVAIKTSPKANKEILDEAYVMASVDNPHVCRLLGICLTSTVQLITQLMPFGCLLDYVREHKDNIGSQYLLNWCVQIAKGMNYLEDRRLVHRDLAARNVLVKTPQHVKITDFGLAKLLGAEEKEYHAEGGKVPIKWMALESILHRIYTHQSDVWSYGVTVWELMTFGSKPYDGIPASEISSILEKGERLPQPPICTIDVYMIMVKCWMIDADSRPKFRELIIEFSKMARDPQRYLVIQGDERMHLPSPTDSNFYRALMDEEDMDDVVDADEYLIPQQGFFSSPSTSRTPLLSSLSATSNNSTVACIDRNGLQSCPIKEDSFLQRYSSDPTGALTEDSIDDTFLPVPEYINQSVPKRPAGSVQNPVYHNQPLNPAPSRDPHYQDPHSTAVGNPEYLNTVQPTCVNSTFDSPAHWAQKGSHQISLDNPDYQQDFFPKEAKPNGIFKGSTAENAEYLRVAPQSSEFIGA
Chain of EGFR (d746-750) (P00533 other isoform, or with tags, fused parts or gaps del 1-694/del 746-750 limits assumed): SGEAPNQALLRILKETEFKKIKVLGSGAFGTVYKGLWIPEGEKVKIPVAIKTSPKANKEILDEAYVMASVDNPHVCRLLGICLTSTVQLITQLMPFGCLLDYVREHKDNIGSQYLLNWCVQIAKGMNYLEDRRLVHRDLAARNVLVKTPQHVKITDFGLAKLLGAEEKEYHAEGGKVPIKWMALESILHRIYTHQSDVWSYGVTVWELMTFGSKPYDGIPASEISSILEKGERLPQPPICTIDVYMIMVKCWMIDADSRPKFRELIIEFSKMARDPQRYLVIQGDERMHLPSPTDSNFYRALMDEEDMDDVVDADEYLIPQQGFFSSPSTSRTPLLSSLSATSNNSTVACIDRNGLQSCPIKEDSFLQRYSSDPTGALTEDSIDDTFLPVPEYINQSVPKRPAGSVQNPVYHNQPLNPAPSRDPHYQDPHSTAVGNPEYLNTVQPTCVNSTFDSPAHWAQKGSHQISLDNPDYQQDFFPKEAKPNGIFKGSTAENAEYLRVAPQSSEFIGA

Turning to `COc1cc2ncnc(-c3cn(C)nc3-c3cccc(O)c3)c2nc1NC(=O)C1(C(F)(F)F)CC1` [Example 422, N-(4-(3-(3-hydroxyphenyl)-1-methyl-1H-pyrazol-4-yl)-7-methoxypyrido[3,2-d]pyrimidin-6-yl)-1-(trifluoromethyl)cyclopropane-1-carboxamide], the concentration for half-maximal inhibition (IC50) was found to be 1 nM at EGFR (d746-750), 4.1 nM in assay [1] and 6.7 nM on EGFR L858R.

Take `COc1cc2ncnc(-c3cn(C)nc3-c3ccccc3)c2nc1O[C@H](C)c1nnc(C)o1` [Example 38, (R)-2-(1-((7-methoxy-4-(1-methyl-3-phenyl-1H-pyrazol-4-yl)pyrido[3,2-d]pyrimidin-6-yl)oxy)ethyl)-5-methyl-1,3,4-oxadiazole]: the IC50 on EGFR (d746-750) is 6.7 nM; in assay [1], 25.6 nM; at EGFR L858R it was 5.9 nM.

On to `Cn1cc(-c2ccc3c(-c4c[nH]nc4-c4ccccc4)ncnc3c2)cn1` [Example 441, 7-(1-methyl-1H-pyrazol-4-yl)-4-(3-phenyl-1H-pyrazol-4-yl)quinazoline], for which the IC50 worked out at 0.7 nM at EGFR (d746-750), 0.4 nM in assay [1] and 1.1 nM at EGFR L858R.

As for `CN1C[C@H]2C[C@@]2(C(=O)Nc2nc3c(-c4cn(C)nc4-c4ccccc4)ncnc3cc2OC2CC2)C1` [Example 460, (1S,5S)—N-[7-cyclopropoxy-4-(1-methyl-3-phenyl-1H-pyrazol-4-yl)pyrido[3,2-d]pyrimidin-6-yl]-3-methyl-3-azabicyclo[3.1.0]hexane-1-carboxamide], the IC50 turned out to be 1.5 nM on EGFR (d746-750), 3.2 nM in assay [1] and 5.7 nM at EGFR L858R.

For `COc1cc2ncnc(-c3cn(C)nc3-c3ccccc3)c2nc1O[C@H](C)c1nnnn1C` [Example 46, (R)-7-methoxy-6-(1-(1-methyl-1H-tetrazol-5-yl)ethoxy)-4-(1-methyl-3-phenyl-1H-pyrazol-4-yl)pyrido[3,2-d]pyrimidine], the values for the half-inhibitory concentration (IC50) (on EGFR (d746-750); in assay [1]; on EGFR L858R) were 1.9 nM, 11.7 nM and 4.4 nM, respectively.

Regarding `[2H]C([2H])([2H])Oc1cc2ncnc(-c3cnn(C([2H])([2H])[2H])c3-c3ccccc3)c2nc1NC(=O)C1(C(F)(F)F)CC1` [Example 487, N-(7-(methoxy-d3)-4-(1-(methyl-d3)-5-phenyl-1H-pyrazol-4-yl)pyrido[3,2-d]pyrimidin-6-yl)-1-(trifluoromethyl)cyclopropane-1-carboxamide], the figures for the IC50 (at EGFR (d746-750); in assay [1]; on EGFR L858R) were 19.5 nM, 173 nM and 50 nM, respectively.

On to `C[C@@H](O)c1cc2c(-c3cn(CC(F)F)nc3-c3ccccc3)ncnc2cc1-c1cnn(C)c1` (single isomer, unassigned) [Example 445, (R)-1-(4-(1-(2,2-difluoroethyl)-3-phenyl-1H-pyrazol-4-yl)-7-(1-methyl-1H-pyrazol-4-yl)quinazolin-6-yl)ethan-1-ol or (S)-1-(4-(1-(2,2-difluoroethyl)-3-phenyl-1H-pyrazol-4-yl)-7-(1-methyl-1H-pyrazol-4-yl)quinazolin-6-yl)ethan-1-ol], for which the 50% inhibitory concentration (IC50) on EGFR (d746-750) was determined as 1 nM; in assay [1], 2.7 nM; on EGFR L858R, 1.5 nM.

In the case of `COc1cc2ncnc(-c3cn(CC(F)F)nc3-c3ccc(F)cc3)c2cc1C1(O)CC1` [Example 489], the concentration for half-maximal inhibition (IC50) on EGFR (d746-750) amounted to 3.9 nM; in assay [1] it was 13.8 nM; at EGFR L858R, 6.9 nM.

`COc1cc2ncnc(-c3cn(CC(F)F)nc3-c3ccccc3)c2cc1NC(=O)[C@]12COC[C@H]1C2` [Example 275, (1S,5S)—N-(4-(1-(2,2-difluoroethyl)-3-phenyl-1H-pyrazol-4-yl)-7-methoxyquinazolin-6-yl)-3-oxabicyclo[3.1.0]hexane-1-carboxamide]: the half-inhibitory concentration (IC50) is 1.3 nM at EGFR (d746-750), 1.9 nM in assay [1] and 1.9 nM at EGFR L858R.

As for `CCOc1cc2ncnc(-c3cn(C)nc3-c3ccccc3)c2cc1N1CCOCC1` [Example 163, 4-(7-ethoxy-4-(1-methyl-3-phenyl-1H-pyrazol-4-yl)quinazolin-6-yl)morpholine], the IC50 came out at 1.4 nM at EGFR (d746-750), 5.5 nM in assay [1] and 3.6 nM on EGFR L858R.

Consider `COc1cc2ncnc(-c3cn(C)nc3-c3ccccc3)c2cc1NC(=O)C(C)(C)N(C)C` [Example 246, 2-(dimethylamino)-N-(7-methoxy-4-(1-methyl-3-phenyl-1H-pyrazol-4-yl)quinazolin-6-yl)-2-methylpropanamide], for which the IC50 came to 2.5 nM at EGFR (d746-750), 7.8 nM in assay [1] and 5.6 nM at EGFR L858R.

`COc1cc2ncnc(-c3cn(C)nc3-c3ccccc3)c2nc1OC(=O)N1CCOC[C@H]1C` [Example 56, 7-methoxy-4-(1-methyl-3-phenyl-1H-pyrazol-4-yl)pyrido[3,2-d]pyrimidin-6-yl (R)-3-methylmorpholine-4-carboxylate]: the 50% inhibitory concentration (IC50) came to 2.1 nM on EGFR (d746-750), 3 nM in assay [1] and 3.4 nM on EGFR L858R.

For `CCn1cc(-c2ncnc3cc(-c4cnn(C)c4)ccc23)c(-c2ccccc2)n1` [Example 496], the half-inhibitory concentration (IC50) on EGFR (d746-750) turned out to be 0.6 nM; in assay [1], 0.4 nM; at EGFR L858R, 0.7 nM.

Consider `COc1cc2ncnc(-c3cn(C)nc3-c3ccccc3F)c2nc1NC(=O)[C@@]12COC[C@@H]1C2` (single isomer, unassigned) [Example 387, (1R,5R)—N-(4-(3-(2-fluorophenyl)-1-methyl-1H-pyrazol-4-yl)-7-methoxypyrido[3,2-d]pyrimidin-6-yl)-3-oxabicyclo[3.1.0]hexane-1-carboxamide or (1S,5S)—N-(4-(3-(2-fluorophenyl)-1-methyl-1H-pyrazol-4-yl)-7-methoxypyrido[3,2-d]pyrimidin-6-yl)-3-oxabicyclo[3.1.0]hexane-1-carboxamide], for which the IC50 at EGFR (d746-750) was 0.9 nM; in assay [1], 1.5 nM; on EGFR L858R, 2 nM.

Regarding `CN(C)CCOc1cc2ncnc(-c3cn(C)nc3-c3ccccc3)c2cc1NC(=O)c1ccccc1F` [Example 300, N-(7-(2-(dimethylamino)ethoxy)-4-(1-methyl-3-phenyl-1H-pyrazol-4-yl)quinazolin-6-yl)-2-fluorobenzamide], the IC50 at EGFR (d746-750) was 1.7 nM; in assay [1], 3.5 nM; on EGFR L858R it was 5 nM.

For `COc1cc2ncnc(-c3cn(C)nc3-c3ccccc3)c2nc1NC(=O)[C@@]1(C(F)(F)F)CCCN1C` (single isomer, unassigned) [Example 429, (R)—N-(7-methoxy-4-(1-methyl-3-phenyl-1H-pyrazol-4-yl)pyrido[3,2-d]pyrimidin-6-yl)-1-methyl-2-(trifluoromethyl) pyrrolidine-2-carboxamide or (S)—N-(7-methoxy-4-(1-methyl-3-phenyl-1H-pyrazol-4-yl)pyrido[3,2-d]pyrimidin-6-yl)-1-methyl-2-(trifluoromethyl) pyrrolidine-2-carboxamide], the half-inhibitory concentration (IC50) on EGFR (d746-750) worked out at 2.7 nM; in assay [1], 11.4 nM; at EGFR L858R, 5.9 nM.

As to `COc1cc2ncnc(-c3cn(C4COC4)nc3-c3ccccc3)c2cc1OC(=O)N1CCOC[C@@H]1C` [Example 68, 7-methoxy-4-(1-(oxetan-3-yl)-3-phenyl-1H-pyrazol-4-yl)quinazolin-6-yl (S)-3-methylmorpholine-4-carboxylate], the half-maximal inhibitory concentration (IC50) on EGFR (d746-750) came out at 2.7 nM; in assay [1], 3 nM; at EGFR L858R it was 6.3 nM.
